Measured values reported in ChEMBL document CHEMBL1129006, “Orally active inhibitors of stromelysin-1 (MMP-3)” (Bioorg Med Chem Lett, 1996).

Experiments:
Mus musculus [1] = assay: Compound was tested for inhibition of MMP-3 -mediated degradation of radiolabeled transferrin in mouse pleural cavity(PLCAV) at a dose 30 mg/kg administered intravenously.; assay type: functional; conditions: route intravenous
Mus musculus [2] = assay: Compound was tested for inhibition of MMP-3 -mediated degradation of radiolabeled transferrin in mouse pleural cavity(PLCAV) at a dose 100 mg/kg administered perorally.; assay type: functional; conditions: route oral
[3] = molecular target: 72 kDa type IV collagenase (Homo sapiens, UniProt P08253); assay: Inhibition of matrix metalloprotease-2 (MMP-2)
Sequence of 72 kDa type IV collagenase (P08253 whole entry): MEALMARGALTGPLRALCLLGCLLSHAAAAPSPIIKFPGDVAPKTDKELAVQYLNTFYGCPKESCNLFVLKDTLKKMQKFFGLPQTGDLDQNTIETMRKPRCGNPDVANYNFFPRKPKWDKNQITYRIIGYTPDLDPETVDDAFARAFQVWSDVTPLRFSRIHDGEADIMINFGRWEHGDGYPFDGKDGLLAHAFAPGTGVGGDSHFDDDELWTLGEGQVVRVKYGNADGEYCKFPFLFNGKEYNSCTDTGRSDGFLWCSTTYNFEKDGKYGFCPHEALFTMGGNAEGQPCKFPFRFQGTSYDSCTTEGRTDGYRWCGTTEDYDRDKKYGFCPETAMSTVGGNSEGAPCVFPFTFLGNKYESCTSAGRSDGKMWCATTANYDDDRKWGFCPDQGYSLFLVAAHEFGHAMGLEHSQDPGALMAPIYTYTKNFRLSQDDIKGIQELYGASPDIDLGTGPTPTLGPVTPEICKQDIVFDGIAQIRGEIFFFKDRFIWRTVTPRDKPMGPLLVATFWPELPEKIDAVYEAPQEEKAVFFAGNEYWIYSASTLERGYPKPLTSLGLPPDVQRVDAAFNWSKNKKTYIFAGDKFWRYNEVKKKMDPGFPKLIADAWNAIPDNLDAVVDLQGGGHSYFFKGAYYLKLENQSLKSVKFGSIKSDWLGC

Interstitial collagenase = molecular target: T1, Interstitial collagenase (Homo sapiens, UniProt P03956); assay: Inhibition of matrix metalloprotease-1 (MMP-1)
T1 sequence (P03956 whole entry): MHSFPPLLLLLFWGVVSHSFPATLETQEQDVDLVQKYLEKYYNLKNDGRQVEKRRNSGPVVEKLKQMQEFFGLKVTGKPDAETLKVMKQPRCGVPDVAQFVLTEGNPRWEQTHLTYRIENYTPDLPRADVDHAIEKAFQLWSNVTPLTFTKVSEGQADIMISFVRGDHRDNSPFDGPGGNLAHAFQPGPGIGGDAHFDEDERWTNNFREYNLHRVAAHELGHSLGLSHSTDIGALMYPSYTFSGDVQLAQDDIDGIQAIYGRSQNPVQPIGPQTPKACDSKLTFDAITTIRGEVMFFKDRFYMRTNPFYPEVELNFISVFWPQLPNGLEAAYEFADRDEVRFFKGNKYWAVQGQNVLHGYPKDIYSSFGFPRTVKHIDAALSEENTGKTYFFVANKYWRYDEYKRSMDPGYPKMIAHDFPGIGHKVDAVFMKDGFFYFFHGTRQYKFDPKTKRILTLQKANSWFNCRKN

Stromelysin-1 = Stromelysin-1 (Homo sapiens, UniProt P08254)
Sequence of Stromelysin-1 (P08254 whole entry): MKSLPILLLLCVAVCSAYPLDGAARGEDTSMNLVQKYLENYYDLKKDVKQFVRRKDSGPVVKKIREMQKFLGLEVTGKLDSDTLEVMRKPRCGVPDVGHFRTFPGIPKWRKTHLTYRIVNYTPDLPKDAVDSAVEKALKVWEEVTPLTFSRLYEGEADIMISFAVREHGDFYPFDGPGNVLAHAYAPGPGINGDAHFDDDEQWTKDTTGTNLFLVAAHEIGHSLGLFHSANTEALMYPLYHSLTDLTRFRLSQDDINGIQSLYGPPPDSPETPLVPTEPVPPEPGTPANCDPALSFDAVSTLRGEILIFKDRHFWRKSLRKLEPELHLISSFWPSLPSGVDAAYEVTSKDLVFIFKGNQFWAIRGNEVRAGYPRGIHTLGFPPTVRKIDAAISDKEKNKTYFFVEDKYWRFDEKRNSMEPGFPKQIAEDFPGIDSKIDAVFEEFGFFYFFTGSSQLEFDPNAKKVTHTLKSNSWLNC
Description: Inhibition of matrix metalloprotease-3 (MMP-3).

| SMILES | Ki [3] [nM] | Ki (Interstitial collagenase) [nM] | Ki (Stromelysin-1) [nM] | inhibition in vivo at 30 mg/kg (Mus musculus [1]) [%] | inhibition in vivo at 100 mg/kg (Mus musculus [2]) [%] | ED50 (Mus musculus [2]) [mg/kg] |
| --- | --- | --- | --- | --- | --- | --- |
| CC(C)C[C@H](NC(=O)[C@H](CCc1ccccc1)N[C@H](CCCCN1C(=O)c2ccccc2C1=O)C(=O)O)C(=O)Nc1ccccc1 |  |  |  | 91 | 1 |  |
| CCCc1ccc(CC[C@H](C[C@H](CCCCN2Cc3ccccc3C2=O)C(=O)O)C(=O)N[C@@H](CC(C)C)C(=O)Nc2ccccc2)cc1 | 5.7 | > 10000 | 0.36 | 82 | 20 |  |
| CCCc1ccc(CC[C@H](CCC(=O)O)C(=O)N[C@@H](CC(C)C)C(=O)Nc2ccccc2)cc1 | 220 | > 10000 | 140 |  |  | 47 |
| CCCc1ccc(CC[C@H](C[C@H](C)C(=O)O)C(=O)N[C@@H](CC(C)C)C(=O)Nc2ccccc2)cc1 | 310 | > 10000 | 68 |  |  | 32 |
| CCCc1ccc(CC[C@H](N[C@H](C)C(=O)O)C(=O)N[C@@H](CC(C)C)C(=O)Nc2ccccc2)cc1 |  |  |  | 63 |  | 65 |

More lines, main results first:

| Ki [3] [nM] | Ki (Interstitial collagenase) [nM] | Ki (Stromelysin-1) [nM] | SMILES | inhibition in vivo at 30 mg/kg (Mus musculus [1]) [%] | inhibition in vivo at 100 mg/kg (Mus musculus [2]) [%] | ED50 (Mus musculus [2]) [mg/kg] |
| --- | --- | --- | --- | --- | --- | --- |
| 2.6 | > 10000 | 1.9 | CCCc1ccc(CC[C@H](N[C@H](CCCCN2C(=O)c3ccccc3C2=O)C(=O)O)C(=O)N[C@@H](CC(C)C)C(=O)Nc2ccccc2)cc1 | 89 |  |  |
| 470 | 4620 | 3600 | CC(C)C[C@H](NC(=O)[C@H](CCc1ccccc1)NCC(=O)O)C(=O)Nc1ccccc1 |  |  |  |
| 110 | 1600 | 9.5 | CCCc1ccc(CC[C@H](N[C@H](CCCCN2Cc3ccccc3C2=O)C(=O)O)C(=O)N[C@@H](CC(C)C)C(=O)Nc2ccccc2)cc1 | 81 | 4 |  |
| > 1000 | > 10000 | 5800 | CC(C)C[C@H](NC(=O)[C@@H](CCC(=O)O)CCc1ccccc1)C(=O)Nc1ccccc1 |  |  |  |
|  | 770 |  | CC(C)C[C@H](NC(=O)[C@H](CCc1ccccc1)N[C@H](C)C(=O)O)C(=O)Nc1ccccc1 [L-696418] | 50 | 55 |  |
